What was measured:
[1] = Plasma protein binding by rapid equilibrium dialysis, human
Method: The plasma protein binding ability of EC-18 was tested by rapid equilibrium dialysis (RED). The chamber separated by a dialysis tubing membrane (cut-off: 8 kDa) was filled on one side with rat or human plasma mixed with phosphate buffer and on the other side with rat or human plasma mixed with the test or standard reference material (test concentration: 1 μM).

[2] = Plasma and lymphatic concentrations of EC-18 in rats after single oral administration; type: in vivo, rat; details: for AUC(0-t) / Cmax / Tmax / half-life: n=3
Method: After administering a single oral dose of 500 or 2000 mg/kg of EC-18 (vehicle: olive oil) to male SD rats, the EC-18 concentration in the sampled plasma and lymphatic fluid was measured to generate the values of PK parameters (Table 16). […] The rate of increase in plasma Cmax and AUClast was lower than the rate of increase of the administered dosage.

[3] = tested on: SD rat; assay: Immunotoxicity study (splenic blastogenesis response test); type: in vivo; details: Oral; 4 weeks
From the text: (§1) Various toxicology studies have been performed. All studies were GLP-compliant unless otherwise noted.

[4] = tested on: SD rat; assay: Single-dose toxicity, SD rat; type: in vivo
From the text: as §1

[5] = target: CYP3A4 (Homo sapiens, UniProt P08684); assay: CYP enzyme inhibition in human liver microsomes, CYP3A4
From the text: CYP1A2, CYP2C9, CYP2C19, CYP2D6, and CYP3A4 are the CYP subfamily, which plays a critical role in the metabolism of most drugs.

[6] = Repeated dose toxicity, Beagle dog; type: in vivo; details: Beagle, dog, in vivo, Oral
From the text: as §1

[7] = tested on: Beagle dog; assay: Repeated dose toxicity, Beagle dog; type: in vivo; details: Oral
From the text: as §1

[8] = target: T1, BCRP (Homo sapiens, UniProt Q9UNQ0); assay: Drug transporter inhibition, BCRP; type: in vitro ADME; details: 100 nM [3H] estrone-3-sulfate; transfected LLC-PK1 cells
T1 construct: expressed in transfected cells; host or cells: LLC-PK1
Method: (§2) This study examined the potential of EC-18 to interact with the transporter proteins that have been known to be involved in the absorption of commercially available drugs. EC-18 was pre-incubated with HEK-293 cells and LLC-PK1 cells that were transfected with the genes of most drug transporters as follows: OATP1B1, OATP1B3, OAT1, OAT3 and OCT2, and BCRP and P-gp, respectively.

[9] = In vitro plasma stability, rat plasma; type: in vitro ADME; details: Rats; 1 μM; 37° C.; n=3
Method: To assess the stability of EC-18 in plasma, the test material, or the standard reference material (test concentration 1 μM) was mixed with rat and human plasma and allowed to react for 1 hr at 37° C. Then, the residual EC-18 concentration was measured by LC-MS/MS. As standard reference materials, albendazole (a drug with high plasma stability) and vinpocetine (a drug with low plasma stability) were tested in parallel. When allowed to react with rat and human plasma for 1 hr, the residual EC-18 concentration in both rat and human plasma was >99% of the initial dose.

[10] = target: T2, OAT1 (Homo sapiens, UniProt Q4U2R8); assay: Drug transporter inhibition, OAT1; type: in vitro ADME; details: 100 nM [3H] para-aminohippuric acid; transfected HEK-293 cells
T2 construct: expressed in transfected cells; host or cells: HEK-293
Method: as §2

[11] = Whole-body autoradiography of rats after single oral [14C]EC-18; type: in vivo, rat; details: 200 mg/kg oral
Method: Male albino rats in fasted conditions were administered a single dose of [^14C]EC-18 (oral dose of 200 mg/kg, vehicle: olive oil). The distribution and levels of radioactivity in the body were observed by whole-body autoradiography performed at 0.25, 1, 8, and 24 hrs after [^14C]EC-18 administration.

[12] = Whole blood and lymphatic radioactivity in rats after single oral [14C]EC-18 100 mg/kg; type: in vivo, rat; details: 100 mg/kg oral; for Tmax: n=3, 100 mg/kg
Method: Male SD rats in fasted condition were administered a single dose of [^14C]EC-18 (oral dose of 100 mg/kg; vehicle: olive oil), and the radioactive concentration of the EC-18 was measured in whole blood samples at 0.5, 1, 2, 3, 4, 6, and 8 hrs after its administration. In parallel, male rats with a cannula inserted into the intestinal tract were administered a single dose of [^14C]EC-18 (oral dose of 100 mg/kg; vehicle: olive oil) and the concentration of EC-18-related radioactivity was measured in lymphatic fluid collected in conscious rats at 0.5, 1, 2, 3, 4, 6, and 8 hrs after its administration (FIG. 60). Then, the values of PK parameters were calculated using the quantitative data from whole blood and lymphatic fluid samples (Table 20). Following a single oral administration of [14C]EC-18, EC-18 concentration in the lymphatic fluid of rats was 10 to 53 times higher than that in whole blood (FIG. 60).

[13] = tested on: SD rat; assay: Immunotoxicity study; type: in vivo; details: Oral; 4 weeks; 0, 2000 mg/kg
From the text: as §1

[14] = Plasma radioactivity in rats after single oral or IV [14C]EC-18; type: in vivo, rat; details: oral, fed condition
Method: Male SD rats in the fed state were administered a single oral dose of 25, 50, or 100 mg/kg (vehicle: olive oil) or a single IV injection of 10 mg/kg of [^14C]EC-18 (EC-18 with radioactive isotope ^14C attached). Subsequently, the PK parameters were assessed. The concentration of radioactivity in rat plasma was measured by liquid scintillation counting (LSC) method after adding a scintillator (Clear-Sol I, Nacalai Tesque, Inc).

[15] = male, SD, rat, Lymph, 500 mg/kg oral
[16] = male, SD, rat, Lymph, 2000 mg/kg oral
[17] = male, SD, rat, Plasma, 500 mg/kg oral
[18] = male, SD, rat, Plasma, 2000 mg/kg oral

T2 sequence (Q4U2R8 whole entry, species assumed): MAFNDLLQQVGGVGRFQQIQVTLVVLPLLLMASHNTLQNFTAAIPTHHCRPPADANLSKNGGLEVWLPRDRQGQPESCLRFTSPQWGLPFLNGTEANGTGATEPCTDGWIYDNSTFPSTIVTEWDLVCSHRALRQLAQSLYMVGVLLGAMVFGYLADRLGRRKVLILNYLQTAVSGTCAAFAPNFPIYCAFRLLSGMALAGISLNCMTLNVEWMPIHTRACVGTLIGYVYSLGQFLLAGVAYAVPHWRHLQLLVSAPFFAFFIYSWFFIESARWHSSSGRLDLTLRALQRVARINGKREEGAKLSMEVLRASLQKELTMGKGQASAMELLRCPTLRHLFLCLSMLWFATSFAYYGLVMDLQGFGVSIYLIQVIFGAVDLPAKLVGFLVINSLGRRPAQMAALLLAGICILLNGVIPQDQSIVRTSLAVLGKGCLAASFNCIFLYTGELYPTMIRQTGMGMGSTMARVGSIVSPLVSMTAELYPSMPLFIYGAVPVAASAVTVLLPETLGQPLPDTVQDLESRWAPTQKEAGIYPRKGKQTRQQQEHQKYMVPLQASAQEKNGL
CYP3A4, sequence (P08684 whole entry): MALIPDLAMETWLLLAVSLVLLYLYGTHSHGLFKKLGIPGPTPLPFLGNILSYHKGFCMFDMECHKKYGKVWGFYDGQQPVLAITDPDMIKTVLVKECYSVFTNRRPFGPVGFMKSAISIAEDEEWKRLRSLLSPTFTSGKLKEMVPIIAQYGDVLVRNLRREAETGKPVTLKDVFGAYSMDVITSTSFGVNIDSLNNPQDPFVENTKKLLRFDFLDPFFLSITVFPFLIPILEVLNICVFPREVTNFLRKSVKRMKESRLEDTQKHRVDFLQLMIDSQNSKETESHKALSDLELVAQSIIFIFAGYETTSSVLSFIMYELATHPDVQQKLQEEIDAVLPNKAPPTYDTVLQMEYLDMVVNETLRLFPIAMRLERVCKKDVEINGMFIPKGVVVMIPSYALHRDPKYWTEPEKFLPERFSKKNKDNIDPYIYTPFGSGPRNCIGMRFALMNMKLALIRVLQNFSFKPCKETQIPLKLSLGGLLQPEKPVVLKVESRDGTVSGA
T1 sequence (Q9UNQ0 whole entry, species assumed): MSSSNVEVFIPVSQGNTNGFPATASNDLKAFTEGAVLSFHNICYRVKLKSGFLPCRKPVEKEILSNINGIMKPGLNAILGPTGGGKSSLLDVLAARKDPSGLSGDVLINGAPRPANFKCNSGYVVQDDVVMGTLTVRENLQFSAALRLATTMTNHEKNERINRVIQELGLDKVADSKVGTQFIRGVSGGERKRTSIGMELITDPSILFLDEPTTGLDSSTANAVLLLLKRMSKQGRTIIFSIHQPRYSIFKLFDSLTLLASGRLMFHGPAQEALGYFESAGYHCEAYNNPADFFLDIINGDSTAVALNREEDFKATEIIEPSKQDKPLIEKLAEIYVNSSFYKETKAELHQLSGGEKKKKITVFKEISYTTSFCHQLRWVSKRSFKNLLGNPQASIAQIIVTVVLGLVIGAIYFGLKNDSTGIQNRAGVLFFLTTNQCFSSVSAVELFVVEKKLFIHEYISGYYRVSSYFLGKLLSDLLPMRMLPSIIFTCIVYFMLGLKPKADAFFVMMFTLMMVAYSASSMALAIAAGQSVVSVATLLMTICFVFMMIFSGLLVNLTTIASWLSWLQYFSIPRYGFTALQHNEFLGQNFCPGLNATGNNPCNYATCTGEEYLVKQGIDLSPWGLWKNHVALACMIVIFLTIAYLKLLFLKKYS

Question: Which results are given for CCCCC/C=C\C/C=C\CCCCCCCC(=O)OC(COC(C)=O)COC(=O)CCCCCCCCCCCCCCC (stereo not drawn) [EC-18, 1-palmitoyl-2-linoleoyl-3-acetylglycerol]?
Answer: Plasma Protein Binding Rate ([1]; Humans, 1 μM, 4 hrs RED, n=3): >99%; fraction unbound at 4 hrs, 1 μM ([1]; human, plasma): < 0.01; bioavailability ([2]; male, SD, rat, plasma, 500-2000 mg/kg oral, read-out: mean absolute bioavailability (BA)): < 0.3%; AUC(0-t) [2, 15]: 903 ± 272 ng·h/mL; Cmax [2, 15]: 78.1 ± 34.1 ng/mL; Tmax [2, 15]: 3.33 ± 1.15 h; AUC(0-t) [2, 16]: 2630 ± 1130 ng·h/mL; Cmax [2, 16]: 245 ± 54.2 ng/mL; Tmax [2, 16]: 3 ± 2.65 h; half-life [2, 16]: 12.3 ± 5.08 h; AUC(0-t) [2, 17]: 6.97 ± 8.2 ng·h/mL; Cmax [2, 17]: 6.87 ± 6.12 ng/mL; Tmax [2, 17]: 0.5 ± 0.5 h; AUC(0-t) [2, 18]: 44.5 ± 39.5 ng·h/mL; Cmax [2, 18]: 12.1 ± 6.66 ng/mL; Tmax [2, 18]: 1.67 ± 0.58 h; half-life [2, 18]: 3.07 ± 0.87 h; time to reach the lymphatic system ([2]; single oral): ≤ 3 h; time to absorption ([2]; single oral 500 or 2000 mg/kg): ≤ 2 h; T and B lymphocyte proliferation [3]: No changes in T and B; Approximate lethal dose ([4]; Oral): dose: >2000 mg/kg; mortality ([4]; Oral, 0, 2000 mg/kg): No dead animals; IC50 [5]: 26.8 µM; NOAEL at 2 weeks ([6]; 2 weeks): > 2000 mg/kg/day; NOAEL at 4 weeks ([6]; 4 weeks (2-week recovery)): > 2000 mg/kg/day; NOAEL at 9 months ([6]; 9 months (4-week recovery)): 2000 mg/kg/day; NOAEL at 13 weeks ([6]; 13 weeks (4-week recovery)): > 2000 mg/kg/day; mortality ([7]; 2 weeks, 0, 500, 1000, 2000 mg/kg): No dead animals; findings ([7]; 2 weeks, males and females in 1000 and 2000 mg/kg dose groups): Grayish stool observed; mortality ([7]; 4 weeks (2-week recovery)): No dead animals; findings ([7]; 4 weeks (2-week recovery), drug administration groups): Grayish stool observed; findings (soft stool and grayish stool; early diarrhea; no toxicological significance) ([7]; 9 months (4-week recovery)): Dose-dependent soft; mortality ([7]; 9 months (4-week recovery)): No dead animals; findings (grayish stool observed) ([7]; 13 weeks (4-week recovery)): Dose-dependent grayish; mortality ([7]; 13 weeks (4-week recovery)): No dead animals; IC50 [8]: > 32 µM; Residual Concentration Relative to the Initial Dose After Reaction for 1 hr in Plasma [9]: >99%; IC50 [10]: > 32 µM; time to elimination [11]: ≤ 24 h; AUC0-last in lymphatic fluid relative to whole blood [12]: 41 times; Cmax in lymphatic fluid relative to whole blood [12]: 31 times; Tmax ([12]; Lymphatic Fluid): 7.0 h; Tmax ([12]; Whole Blood, fasted): 3.8 h; immunotoxicity [13]: No immunotoxicity; absolute bioavailability (BA) [14]: approximately 46%
